In data set [1] the test system is mice. The data set is described as follows: Locomotion measured as ambulatory time (modified tetrad assay). The settings on record: for Locomotion (in words): modified tetrad assay, THC 10-56 mg/kg, ax-CBN 56-320 mg/kg. The format is in vivo.
Data set [2] has as its system mice. Briefly: Acute thermal antinociception (tail-flick, modified tetrad assay). Type of data set: in vivo. The settings on record: THC 10-56 mg/kg, ax-CBN 56-320 mg/kg.
Another data set relates to C57bl/6j mice. The data set is described as follows: Reduction of body temperature (hypothermia). The following applies: for Effect on body temperature (in words): mice, THC 10-56 mg/kg, ax-CBN 56-320 mg/kg.
The target of a further data set is cannabinoid receptors. The settings on record: in a variety of studies, cited from earlier work.
Data set [3] can be described thus: Locomotion measured as ambulatory time (modified tetrad assay). The settings on record: C57bl/6j, mouse, in vivo; Table 4; read-out: Hypolocomotion ED50 ((95% CL). Type of data set: in vivo, mice.
A short description of data set [4]: Reduction of body temperature (hypothermia). The following applies: C57bl/6j, mouse, in vivo, Body Temp. ED50 ((95% CL) mg/kg), Table 4; hypothermia.
The subject of data set [5] is mice trained to discriminate 10 mg/kg THC. The settings on record: rimonabant 0.32 and 1 mg/kg versus vehicle; cited from earlier work.

Entries after “also recorded” stand apart in the source; their conditions may differ.

The source of these data is patent US12569503B2, “Methods and compositions for substituted axially-chiral cannabinol analogs” (University of Florida Research Foundation, Inc., priority 2019, dated 2026).

For 10-methyl-CBN [ax-CBN], the “Hypolocomotion ED50 ((95% CL)” value in the data set with mice [1] (Table 4) is 290.20 mg/kg. Also, the “Locomotion (in words)” value in the data set on mice [1] was “decreased locomotion”. The “Acute thermal antinociception (in words)” value in the data set on mice [2] was “dose-relatedly produced thermal antinociception”. Further, in the data set on C57bl/6j mice (Table 4, hypothermia), the “Body Temp. ED50 ((95% CL)” value was 308.98 mg/kg. In addition, the “Effect on body temperature (in words)” value in the data set with C57bl/6j mice is “hypothermia”.
With `CCCCCc1cc(O)c2c(c1)OC(C)(C)c1ccc(C)cc1-2` [CBN, cannabinol], the “Binding affinity for cannabinoid receptors” value at cannabinoid receptors was “significantly higher”.
As for `CCCCCc1cc(O)c2c(c1)OC(C)(C)[C@@H]1CCC(C)=C[C@@H]21` [THC, (−)-trans-Δ^9-tetrahydrocannabinol], the ED50 (in general, the dose that gives a 50% effect, or the effect in half of the subjects) in data set [3] was 25.5 mg/kg; in data set [4], 17.5 mg/kg. Further, the “Locomotion (in words)” value in the data set on mice [1] is recorded as “decreased locomotion”. Moreover, the “Acute thermal antinociception (in words)” value in the data set on mice [2] was “dose-relatedly produced thermal antinociception”. The Ki at cannabinoid receptors (read-out: Binding affinity for cannabinoid receptors) was 0.02 to 0.04 µM. Moreover, the “Effect on body temperature (in words)” value in the data set with C57bl/6j mice is on record as “robust depression of body temperature; also recorded: hypothermia”.
`Cc1c(C(=O)NN2CCCCC2)nn(-c2ccc(Cl)cc2Cl)c1-c1ccc(Cl)cc1` [rimonabant]: the “Effect on THC dose effect in drug discrimination (in words)” value in data set [5] was “antagonizes the dose effect of THC”.
